In assay [1] the test system is A2780. Kind of assay: Potentiation of cisplatin-induced cytotoxicity against human A2780 cells after 24 hrs in presence of cisplatin by Ez-Cytox reagent based assay. Type of assay: functional, cell-based.
Assay [2] relates to LLC-PK1. Nature of the assay: Renoprotective activity in pig LLC-PK1 cells assessed as inhibition of cisplatin-induced damage by measuring increase in cell viability preincubated for 2 hrs followed by cisplatin addition after 24 hrs by Ez-Cytox reagent based assay. Type of assay: functional. Particulars: Sus scrofa.
Assay [3] relates to A2780. Kind of assay: Potentiation of cisplatin-induced cytotoxicity against human A2780 cells up to 100 uM after 24 hrs in presence of cisplatin by Ez-Cytox reagent based assay. Type of assay: functional, cell-based.
Assay [4] relates to LLC-PK1. Kind of assay: Renoprotective activity in pig LLC-PK1 cells assessed as inhibition of cisplatin-induced increase in caspase-3 cleavage at 50 to 100 uM preincubated for 2 hrs followed by cisplatin addition after 24 hrs by radioimmunoprecipitation assay. Type of assay: functional, cell-based. Particulars: Sus scrofa.
Assay [5] is filed under the species Sus scrofa. Kind of assay: Inhibition of cisplatin-induced increase in phosphorylated p38 MAPK levels in pig LLC-PK1 cells at 50 to 100 uM pretreated for 2 hrs followed by cisplatin addition after 24 hrs by radioimmunoprecipitation assay. The class given is cell-based.
The species entered for assay [6] is Sus scrofa. Kind of assay: Inhibition of cisplatin-induced increase in phosphorylated JNK levels in pig LLC-PK1 cells at 50 to 100 uM pretreated for 2 hrs followed by cisplatin addition after 24 hrs by radioimmunoprecipitation assay. The class given is cell-based.
The species named for assay [7] is Sus scrofa. Kind of assay: Inhibition of cisplatin-induced increase in phosphorylated ERK levels in pig LLC-PK1 cells at 50 to 100 uM pretreated for 2 hrs followed by cisplatin addition after 24 hrs by radioimmunoprecipitation assay. The class given is cell-based.
For assay [8], the system named is LLC-PK1. Kind of assay: Renoprotective activity in pig LLC-PK1 cells assessed as inhibition of cisplatin-induced apoptosis by measuring apoptotic cells at 50 to 100 uM preincubated for 2 hrs followed by cisplatin addition after 24 hrs by annexin-V Alexa Fluor488/propidium iodide staining based cytometric method (reference value: 26.3%). The class given is functional, Sus scrofa.

The subject of assay [9] is LLC-PK1. Nature of the assay: Renoprotective activity in pig LLC-PK1 cells assessed as inhibition of cisplatin-induced damage by measuring cell viability at 50 to 100 uM preincubated for 2 hrs followed by cisplatin addition after 24 hrs by Ez-Cytox reagent based assay (reference value: 60%). The class given is functional, Sus scrofa.
Assay [10] concerns LLC-PK1. Nature of the assay: Renoprotective activity in pig LLC-PK1 cells assessed as inhibition of cisplatin-induced damage by measuring increase in cell viability at 10 to 100 uM preincubated for 2 hrs followed by cisplatin addition after 24 hrs by Ez-Cytox reagent based assay. The class given is functional. Particulars: Sus scrofa.

Active and inactive are the calls of the source. No cut-off for these calls is given here. Where only a bound is given, the exact number is not on record here.

Consider `CC(=O)O[C@H]1CC[C@]2(C)C3=CC[C@]4(C)[C@@H]([C@@H](CCC=C(C)C)C(=O)O)CC[C@@]4(C)C3=CC[C@H]2C1(C)C`, for which the outcome in the assay on A2780 [1] was inactive. In addition, the inhibition entry in the assay with LLC-PK1 [2] was “Dose-dependent effect”.

For the molecule `C=C(CC[C@@H](C(=O)O)[C@H]1CC[C@@]2(C)C3=CC[C@H]4C(C)(C)[C@@H](OC(C)=O)CC[C@]4(C)C3=CC[C@]12C)C(C)C`, the outcome in the assay with A2780 [3] was Active. The inhibition entry with LLC-PK1 [4], in the assay filed under Sus scrofa [5], in the assay filed under Sus scrofa [6] and in the assay listed under Sus scrofa [7] was “Active” in each case. For the same molecule, the inhibition result in the assay with LLC-PK1 [2] is “Dose-dependent effect”. Moreover, the “inhibition (INH)” value with LLC-PK1 [8] was 4.3%; in the assay with LLC-PK1 [9] it was “<=80%”.

As to `O=c1c(O)c(-c2ccc(O)c(O)c2)oc2cc(O)cc(O)c12`, the inhibition result in the assay with LLC-PK1 [10] was “Active”.
